Reference: ChEMBL document CHEMBL5346921, “Discovery of novel benzamide derivatives bearing benzamidophenyl and phenylacetamidophenyl scaffolds as potential antitumor agents via targeting PARP-1” (Eur J Med Chem, 2023)

What was measured:
[1] = target: Poly [ADP-ribose] polymerase 1 (Homo sapiens, UniProt P09874); assay: Inhibition of human PARP-1 by ELISA
[2] = test system: HCT-116; assay: Inhibition of colony formation in human HCT-116 cells pretreated for 48 hrs followed by replacement of fresh medium and measured every 3 days by crystal violet staining based analysis; assay type: functional, cell-based; details: dose 0.3-3 µM
[3] = test system: HCT-116; assay: Inhibition of colony formation in human HCT-116 cells at 3 uM pretreated for 48 hrs followed by replacement of fresh medium and measured every 3 days by crystal violet staining based analysis; assay type: functional
[4] = test system: HCT-116; assay: Inhibition of cell migration in human HCT-116 cells at 1 uM incubated for 48 hrs by wound healing assay; assay type: functional
[5] = test system: HCT-116; assay: Inhibition of cell migration in human HCT-116 cells at 3 uM incubated for 48 hrs by wound healing assay; assay type: functional
[6] = test system: HCT-116; assay: Induction of cell cycle arrest in human HCT-116 cells assessed as accumulation of cells at G0/G1 phase at 0.3 uM incubated for 48 hrs by PI staining based flow cytometry (reference value: 62.1%); assay type: functional
[7] = test system: HCT-116; assay: Induction of cell cycle arrest in human HCT-116 cells assessed as accumulation of cells at S phase at 0.3 uM incubated for 48 hrs by PI staining based flow cytometry (reference value: 14.5%); assay type: functional
[8] = test system: HCT-116; assay: Induction of cell cycle arrest in human HCT-116 cells assessed as accumulation of cells at G0/G1 phase at 1.5 uM incubated for 48 hrs by PI staining based flow cytometry (reference value: 62.1%); assay type: functional
[9] = test system: HCT-116; assay: Induction of cell cycle arrest in human HCT-116 cells assessed as accumulation of cells at G2/M phase at 1.5 uM incubated for 48 hrs by PI staining based flow cytometry (reference value: 24.7%); assay type: functional
[10] = test system: HCT-116; assay: Induction of cell cycle arrest in human HCT-116 cells assessed as accumulation of cells at G2/M phase at 7.5 uM incubated for 48 hrs by PI staining based flow cytometry (reference value: 24.7%); assay type: functional
[11] = test system: HCT-116; assay: Induction of cell cycle arrest in human HCT-116 cells assessed as accumulation of cells at G2/M phase at 0.3 uM incubated for 72 hrs by PI staining based flow cytometry (reference value: 25.4%); assay type: functional
[12] = test system: HCT-116; assay: Induction of cell cycle arrest in human HCT-116 cells assessed as accumulation of cells at G0/G1 phase at 1.5 uM incubated for 72 hrs by PI staining based flow cytometry (reference value: 57.2%); assay type: functional
[13] = test system: HCT-116; assay: Induction of cell cycle arrest in human HCT-116 cells assessed as accumulation of cells at G2/M phase at 1.5 uM incubated for 72 hrs by PI staining based flow cytometry (reference value: 25.4%); assay type: functional
[14] = test system: HCT-116; assay: Induction of cell cycle arrest in human HCT-116 cells assessed as accumulation of cells at G0/G1 phase at 7.5 uM incubated for 72 hrs by PI staining based flow cytometry (reference value: 57.2%); assay type: functional
[15] = test system: HCT-116; assay: Induction of cell cycle arrest in human HCT-116 cells assessed as accumulation of cells at G2/M phase at 7.5 uM incubated for 72 hrs by PI staining based flow cytometry (reference value: 25.4%); assay type: functional
[16] = test system: HCT-116; assay: Induction of apoptosis in human HCT-116 cells assessed as viable cells at 0.3 uM incubated for 48 hrs by AnnexinV-FITC/PI staining based flow cytometry (reference value: 97.89%); assay type: functional; details: read-out: Activity
[17] = test system: HCT-116; assay: Induction of apoptosis in human HCT-116 cells assessed as late apoptotic cells at 0.3 uM incubated for 48 hrs by AnnexinV-FITC/PI staining based flow cytometry (reference value: 0%); assay type: functional
[18] = test system: HCT-116; assay: Induction of apoptosis in human HCT-116 cells assessed as necrotic cells at 0.3 uM incubated for 48 hrs by AnnexinV-FITC/PI staining based flow cytometry (reference value: 0%); assay type: functional
[19] = test system: HCT-116; assay: Induction of apoptosis in human HCT-116 cells assessed as viable cells at 1.5 uM incubated for 48 hrs by AnnexinV-FITC/PI staining based flow cytometry (reference value: 97.89%); assay type: functional; details: read-out: Activity
[20] = test system: HCT-116; assay: Induction of apoptosis in human HCT-116 cells assessed as necrotic cells at 7.5 uM incubated for 48 hrs by AnnexinV-FITC/PI staining based flow cytometry (reference value: 0%); assay type: functional
[21] = test system: HCT-116; assay: Induction of apoptosis in human HCT-116 cells assessed as viable cells at 0.3 uM incubated for 72 hrs by AnnexinV-FITC/PI staining based analysis (reference value: 98.95%); assay type: functional; details: read-out: Activity
[22] = test system: HCT-116; assay: Induction of apoptosis in human HCT-116 cells assessed as viable cells at 1.5 uM incubated for 72 hrs by AnnexinV-FITC/PI staining based analysis (reference value: 98.95%); assay type: functional; details: read-out: Activity
[23] = test system: HCT-116; assay: Induction of apoptosis in human HCT-116 cells assessed as early apoptotic cells at 1.5 uM incubated for 72 hrs by AnnexinV-FITC/PI staining based analysis (reference value: 1.05%); assay type: functional
[24] = test system: HCT-116; assay: Induction of apoptosis in human HCT-116 cells assessed as necrotic cells at 1.5 uM incubated for 72 hrs by AnnexinV-FITC/PI staining based analysis (reference value: 0%); assay type: functional
[25] = test system: HCT-116; assay: Induction of apoptosis in human HCT-116 cells assessed as viable cells at 7.5 uM incubated for 72 hrs by AnnexinV-FITC/PI staining based analysis (reference value: 98.95%); assay type: functional; details: read-out: Activity
[26] = test system: HCT-116; assay: Induction of apoptosis in human HCT-116 cells assessed as early apoptotic cells at 7.5 uM incubated for 72 hrs by AnnexinV-FITC/PI staining based analysis (reference value: 1.05%); assay type: functional
[27] = test system: HCT-116; assay: Induction of apoptosis in human HCT-116 cells assessed as late apoptotic cells at 7.5 uM incubated for 72 hrs by AnnexinV-FITC/PI staining based analysis (reference value: 0%); assay type: functional
[28] = test system: HCT-116; assay: Induction of mitochondrial membrane potential loss in human HCT-116 cells assessed as JC-1 aggregate level by measuring red fluorescence intensity at 0.3 uM incubated for 48 hrs by JC-1 staining based flow cytometry (reference value: 96.72%); assay type: functional
[29] = test system: HCT-116; assay: Induction of mitochondrial membrane potential loss in human HCT-116 cells assessed as JC-1 monomer level by measuring green fluorescence intensity at 0.3 uM incubated for 48 hrs by JC-1 staining based flow cytometry (reference value: 3.28%); assay type: functional
[30] = test system: HCT-116; assay: Induction of mitochondrial membrane potential loss in human HCT-116 cells assessed as JC-1 monomer level by measuring green fluorescence intensity at 1 uM incubated for 48 hrs by JC-1 staining based flow cytometry (reference value: 3.28%); assay type: functional
[31] = test system: HCT-116; assay: Induction of mitochondrial membrane potential loss in human HCT-116 cells assessed as JC-1 monomer level by measuring green fluorescence intensity at 3 uM incubated for 48 hrs by JC-1 staining based flow cytometry (reference value: 3.28%); assay type: functional
[32] = test system: HCT-116; assay: Induction of apoptosis in human HCT-116 cells assessed as increase in Bax protein expression incubated for 48 hrs by western blot analysis; assay type: functional, cell-based; details: dose 0.3-3 µM
[33] = test system: HCT-116; assay: Induction of apoptosis in human HCT-116 cells assessed as increase in cleaved caspase-3 protein expression incubated for 48 hrs by western blot analysis; assay type: functional, cell-based; details: dose 0.3-3 µM
[34] = test system: HCT-116; assay: Induction of apoptosis in human HCT-116 cells assessed as increase in cleaved PARP protein expression incubated for 48 hrs by western blot analysis; assay type: functional, cell-based; details: dose 0.3-3 µM

Chain of Poly [ADP-ribose] polymerase 1 (P09874 whole entry): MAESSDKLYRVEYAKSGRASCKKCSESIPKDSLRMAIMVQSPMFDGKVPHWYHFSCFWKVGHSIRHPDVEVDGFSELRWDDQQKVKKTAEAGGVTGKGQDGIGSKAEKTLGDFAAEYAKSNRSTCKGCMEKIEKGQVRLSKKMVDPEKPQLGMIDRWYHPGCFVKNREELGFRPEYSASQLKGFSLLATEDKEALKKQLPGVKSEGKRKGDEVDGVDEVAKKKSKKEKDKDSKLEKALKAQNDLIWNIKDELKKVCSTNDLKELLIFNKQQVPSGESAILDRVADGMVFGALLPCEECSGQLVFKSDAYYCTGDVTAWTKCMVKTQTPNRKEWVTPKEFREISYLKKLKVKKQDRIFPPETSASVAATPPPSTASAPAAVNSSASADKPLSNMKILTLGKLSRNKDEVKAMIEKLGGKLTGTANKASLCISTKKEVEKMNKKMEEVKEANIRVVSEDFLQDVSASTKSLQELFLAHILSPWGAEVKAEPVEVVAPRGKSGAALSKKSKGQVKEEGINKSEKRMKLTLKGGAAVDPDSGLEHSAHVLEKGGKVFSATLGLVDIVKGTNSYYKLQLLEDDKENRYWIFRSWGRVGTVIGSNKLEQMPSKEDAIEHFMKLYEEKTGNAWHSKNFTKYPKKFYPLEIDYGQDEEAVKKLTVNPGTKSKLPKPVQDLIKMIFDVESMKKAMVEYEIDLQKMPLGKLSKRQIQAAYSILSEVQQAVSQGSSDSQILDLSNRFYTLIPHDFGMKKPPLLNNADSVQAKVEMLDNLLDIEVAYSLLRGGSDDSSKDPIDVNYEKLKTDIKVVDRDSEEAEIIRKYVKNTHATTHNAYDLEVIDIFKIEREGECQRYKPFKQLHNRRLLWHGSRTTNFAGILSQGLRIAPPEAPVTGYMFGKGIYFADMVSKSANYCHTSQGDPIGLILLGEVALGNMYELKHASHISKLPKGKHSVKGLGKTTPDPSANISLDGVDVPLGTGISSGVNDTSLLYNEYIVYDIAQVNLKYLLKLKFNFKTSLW

NC(=O)c1ccccc1OCc1cccc(NC(=O)c2ccc(Br)cc2)c1
IC50 [1]: 0.25 nM | inhibition [2]: Dose-Dependent Effect | inhibition at 3 µM [3]: 100% | inhibition at 1 µM [4]: 36.3% | inhibition at 3 µM [5]: 43.2% | Activity [6]: 60.7% | Activity [7]: 11% | Activity [8]: 56.6% | Activity [9]: 33% | Activity [10]: 41% | Activity [11]: 29.6% | Activity [12]: 45.1% | Activity [13]: 35.5% | Activity [14]: 34.4% | Activity [15]: 45.5% | viability at 0.3 µM [16]: 90.4% | Activity [17]: 0.25% | Activity [18]: 0.23% | viability at 1.5 µM [19]: 73% | Activity [20]: 0.51% | viability at 0.3 µM [21]: 76.3% | viability at 1.5 µM [22]: 69.3% | Activity [23]: 30.42% | Activity [24]: 0.01% | viability at 7.5 µM [25]: 20.5% | Activity [26]: 79.44% | Activity [27]: 0.05% | Activity [28]: 90.62% | Activity [29]: 9.38% | Activity [30]: 14.16% | Activity [31]: 50.03% | Activity [32]: Dose-Dependent Effect | Activity [33]: Dose-Dependent Effect | Activity [34]: Dose-Dependent Effect
